# Results as given in US20230087844A1, “USE OF N2-QUINCLINE OR ISOQUINOLINE SUBSTITUTED PURINE DERIVATIVES IN CANCER TREATMENT” (SHANGHAI HUAYU BIOTECHNOLOGY CO., LTD., priority 2020, published 2023).
# Marks after values point to notes of the source that are not given here.
# Legend:
# PDGFR = assay: Inhibition of PDGFR phosphorylation; type: biochemical
# From the text: (§1) FLT3 is a class III receptor tyrosine kinase and plays an important role in hematopoiesis and lymphocyte development. […] Wang et al found over 60% of 82 leukemia cell lines were FLT3 positive (Wang Y et al., (2006) Journal of Experimental Hematology 14(3): 446-449). FLT3-internal tandem duplication (ITD) is the most commonly seen mutation in AML patients, with about 17-34% of AML patients carrying such a mutation (Jia H et al., (2018) Medical Laboratory Science and Clinics 19(5): 39). […] Thus, the compounds of the disclosure with high inhibitory effect on FLT3 function may be good candidates for leukemia treatment.
# H526 = assay: Tumor cell death by MTT, H526; type: cell-based, human; details: 20 nM
# Protocol: The in vitro inhibitory effect of Compound A alone or in combination with a PARP inhibitor on tumor cell growth was tested using human small cell lung cancer (SCLC) cell lines, including H69 (ATCC® HTB-119™), H526 (ATCC® CRL-5811™) and H446 (TCHu196, National Collection of Authenticated Cell Cultures).
# Briefly, the cells were seeded into a 96-well dish with RPMI-1640 (10-040-CV, Coming cellgro) containing 10% fetal bovine serum (10270-106, GIBCO), 1% penicillin and 1% streptomycin (BaSalMedia, S110JV), at an initial density of 3×10^3 cells per well ([…]), and cultured at a 37° C., 5% CO2 humidified incubator for 24 hours. Then, the culture media were added with Compound A (final concentration at 20 nM), olaparib (APEXBIO, A4154, a PARP inhibitor, final concentration at 10 μM), Compound A + olaparib (final concentrations at20 nM and 10 μM), or PBS (vehicle), respectively, and the cells were cultured for 48 hours. Then, cell viability was determined by MTT. The test was done in triplicate.
# Cell death rate was calculated by the following formula.
# Cell death rate=[1−(ODtest-ODvehicle)]×100%
# Cell death rates were analyzed using student's t-test, and group differences were deemed statistically significant when the p-value was lower than 0.05. Zheng-Jun Jin's Q value was calculated using the formula Q=EA+B/(EA+EB-EA×EB) to assess the combined effect of Compound A and the PARP inhibitor, wherein EA+B, EA, and EB referred to the cell death rates caused by the combined treatment, Compound A treatment and PARP inhibitor treatment, respectively. A Q value higher than 1.15 meant a synergistic […] effect.
# Another PARP inhibitor, rucaparib (APEXBIO, A4156), was tested alone or with Compound A for inhibitory effect on tumor cell growth, following the protocol of Example 9.
# [1] = system: A549 human non-small cell lung cancer cells; assay: A549 non-small cell lung cancer xenograft in mice; details: D0, 3, 6, 9; for T/C: D18
# Protocol: Mice body weights and tumor sizes were measured 2 to 3 times a week. The tumor volume (V) was calculated as (length× width^2)/2. T/C (%) was calculated as (T-T0)/(C-C0)×100, wherein T and C represented the tumor volumes in the administration group and the vehicle group respectively at the end of the experiment, while T0 and C0 represented the tumor volumes in the administration group and the vehicle group respectively at the beginning of the experiment. And RTV was calculated as (Tumor volume at Day N/Tumor volume at Day 0). Mice were sacrificed on Day-14.
# BALB/cA-nude mice, 5-6 weeks old, purchased from Shanghai SLAC Laboratory Animal Co., Ltd, were subcutaneously inoculated with A549 human non-small cell lung cancer cells (from ATCC).
# Mice body weights and tumor sizes were measured 2 to 3 times a week. The tumor volume, T/C and RTV were calculated as described above. Mice were sacrificed on Day 18.
# A549 = assay: MTT tumor cell proliferation, A549; type: cell-based; details: Homo sapiens; A549, Lung cancer, 72 hour
# Protocol: (§2) as an exemplary compound of formula (I), was tested for its inhibitory effect on tumor cell proliferation in a MTT assay.
# (§3) Briefly, cells at the log phase were collected, suspended in the cell culture medium at 4*10^4/ml density, and plated in 96-well plates, 90 μl per well. The plates were kept in a 5% CO2 and 37° C. incubator for 2 hours, and then added with 100 μg/ml, 10 μg/ml, 1 μg/ml, 0.1 μg/ml, 0.01 μg/ml or 0.001 μg/ml Compound A, 4 replicates for each cell at each compound concentration. DMSO was used in the positive control group, and another negative group was also set. After 72 hour incubation in the same incubator, 20 μl 5 mg/ml MTT reagent was added to each well. After another 4 hour incubation, each well was added with 100 μl SDS and further incubated for 12 hours. Absorbance at 570 nm was read in a reader, and IC50 was calculated.
# U87 = assay: MTT tumor cell proliferation, U87; type: cell-based; details: Homo sapiens, U-87 MG; U87, Brain glioma, 72 hour
# Protocol: as §2, §3
# RS 4;11 = assay: MTT tumor cell proliferation, RS 4;11; type: cell-based; details: Homo sapiens, RS4-11; RS 4;11, Acute lymphocytic leukemia, 72 hour
# Protocol: as §2, §3
# KDR (VEGFR-2) = KDR (VEGFR-2) (Homo sapiens, UniProt P35968); assay: Inhibition of KDR phosphorylation; type: biochemical
# KDR (VEGFR-2), sequence (P35968 20-1356, species assumed): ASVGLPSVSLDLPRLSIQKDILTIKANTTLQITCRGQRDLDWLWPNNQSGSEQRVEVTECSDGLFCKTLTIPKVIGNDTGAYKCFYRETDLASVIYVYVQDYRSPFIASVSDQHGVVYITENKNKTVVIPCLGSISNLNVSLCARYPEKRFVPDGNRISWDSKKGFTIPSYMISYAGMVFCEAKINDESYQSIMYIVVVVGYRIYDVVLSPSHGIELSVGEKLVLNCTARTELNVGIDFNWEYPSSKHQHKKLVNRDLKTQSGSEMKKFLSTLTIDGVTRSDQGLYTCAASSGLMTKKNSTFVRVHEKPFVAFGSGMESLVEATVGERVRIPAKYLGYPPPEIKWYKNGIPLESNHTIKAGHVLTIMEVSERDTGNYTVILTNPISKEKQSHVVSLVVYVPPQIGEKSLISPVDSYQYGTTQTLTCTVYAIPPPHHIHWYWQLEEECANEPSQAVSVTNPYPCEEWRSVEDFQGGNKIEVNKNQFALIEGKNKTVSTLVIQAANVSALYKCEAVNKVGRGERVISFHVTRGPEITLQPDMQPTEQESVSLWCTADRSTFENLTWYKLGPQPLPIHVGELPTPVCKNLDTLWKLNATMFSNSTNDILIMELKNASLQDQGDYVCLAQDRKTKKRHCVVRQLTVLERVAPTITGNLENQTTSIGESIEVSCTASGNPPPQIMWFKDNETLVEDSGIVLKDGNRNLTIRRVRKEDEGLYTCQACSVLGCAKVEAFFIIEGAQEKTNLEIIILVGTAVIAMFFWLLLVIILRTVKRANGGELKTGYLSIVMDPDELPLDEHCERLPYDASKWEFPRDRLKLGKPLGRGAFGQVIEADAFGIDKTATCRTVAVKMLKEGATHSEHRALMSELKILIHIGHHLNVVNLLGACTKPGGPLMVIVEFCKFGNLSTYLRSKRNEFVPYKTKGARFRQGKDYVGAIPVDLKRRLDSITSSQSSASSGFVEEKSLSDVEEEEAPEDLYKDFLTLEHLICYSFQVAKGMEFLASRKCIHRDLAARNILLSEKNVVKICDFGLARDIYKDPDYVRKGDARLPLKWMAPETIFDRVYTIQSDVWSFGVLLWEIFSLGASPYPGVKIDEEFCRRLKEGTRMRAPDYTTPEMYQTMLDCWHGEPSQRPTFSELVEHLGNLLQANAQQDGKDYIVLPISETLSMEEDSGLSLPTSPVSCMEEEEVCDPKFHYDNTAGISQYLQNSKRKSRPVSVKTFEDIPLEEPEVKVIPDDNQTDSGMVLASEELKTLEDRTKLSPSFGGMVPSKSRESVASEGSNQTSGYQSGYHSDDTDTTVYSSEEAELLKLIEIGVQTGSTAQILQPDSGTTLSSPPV
# From the text: as §1
# Ls-174t = assay: MTT tumor cell proliferation, Ls-174t; type: cell-based; details: Homo sapiens, LS174T, Colon cancer, 72 hour
# Protocol: as §2, §3
# [2] = system: Ls-174t human colon cancer cells; assay: Ls-174t colon cancer xenograft in mice; type: in vivo, BALB/cA-nude mice; details: for T/C: D14
# From the text: Mice were sacrificed on Day-14.
# K562 = assay: MTT tumor cell proliferation, K562; type: cell-based; details: Homo sapiens; K562, Chronic myeloid leukemia, 72 hour
# Protocol: as §2, §3
# BT-474 = assay: MTT tumor cell proliferation, BT-474; type: cell-based; details: Homo sapiens; BT-474, Breast cancer, 72 hour
# Protocol: as §2, §3
# NCI-H460 = assay: MTT tumor cell proliferation, NCI-H460; type: cell-based; details: Homo sapiens; NCI-H460, Lung cancer, 72 hour
# Protocol: as §2, §3
# leukemia cell lines = assay: MTT tumor cell proliferation, leukemia cell lines (summary); type: cell-based; details: summary of Table 2
# Protocol: as §2, §3
# PI3K α isoform = PI3K α isoform (Homo sapiens, UniProt P42336); details: one of the other three isoforms
# PI3K α isoform, sequence (P42336 whole entry, canonical isoform): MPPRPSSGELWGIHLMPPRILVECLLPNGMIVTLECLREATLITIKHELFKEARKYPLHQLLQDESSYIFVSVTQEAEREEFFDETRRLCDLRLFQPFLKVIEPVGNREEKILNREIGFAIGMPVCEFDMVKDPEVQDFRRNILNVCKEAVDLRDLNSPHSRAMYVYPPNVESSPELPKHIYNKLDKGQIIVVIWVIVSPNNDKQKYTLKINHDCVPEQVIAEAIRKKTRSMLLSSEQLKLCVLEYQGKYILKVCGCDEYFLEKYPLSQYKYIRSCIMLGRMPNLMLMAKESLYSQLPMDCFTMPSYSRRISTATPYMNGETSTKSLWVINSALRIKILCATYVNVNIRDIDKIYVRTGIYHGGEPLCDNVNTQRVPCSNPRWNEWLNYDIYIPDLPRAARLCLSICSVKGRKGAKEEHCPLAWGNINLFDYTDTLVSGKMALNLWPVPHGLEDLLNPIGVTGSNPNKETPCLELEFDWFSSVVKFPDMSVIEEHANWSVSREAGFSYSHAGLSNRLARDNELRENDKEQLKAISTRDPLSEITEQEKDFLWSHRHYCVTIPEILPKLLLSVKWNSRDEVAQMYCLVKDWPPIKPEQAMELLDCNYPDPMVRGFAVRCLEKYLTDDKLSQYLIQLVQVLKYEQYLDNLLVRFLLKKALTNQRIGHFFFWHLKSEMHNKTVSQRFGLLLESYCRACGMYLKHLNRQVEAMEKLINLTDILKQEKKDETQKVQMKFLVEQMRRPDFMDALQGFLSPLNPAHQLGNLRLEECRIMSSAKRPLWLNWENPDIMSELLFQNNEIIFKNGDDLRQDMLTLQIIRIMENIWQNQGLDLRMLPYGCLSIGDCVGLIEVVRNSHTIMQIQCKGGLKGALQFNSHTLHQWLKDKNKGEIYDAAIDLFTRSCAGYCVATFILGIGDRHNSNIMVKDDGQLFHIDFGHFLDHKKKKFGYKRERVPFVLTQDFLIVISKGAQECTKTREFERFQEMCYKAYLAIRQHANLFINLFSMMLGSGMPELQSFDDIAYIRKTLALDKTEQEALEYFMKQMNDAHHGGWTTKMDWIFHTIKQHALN
# PI3K α isoform, sequence (P27986 whole entry partner, canonical isoform): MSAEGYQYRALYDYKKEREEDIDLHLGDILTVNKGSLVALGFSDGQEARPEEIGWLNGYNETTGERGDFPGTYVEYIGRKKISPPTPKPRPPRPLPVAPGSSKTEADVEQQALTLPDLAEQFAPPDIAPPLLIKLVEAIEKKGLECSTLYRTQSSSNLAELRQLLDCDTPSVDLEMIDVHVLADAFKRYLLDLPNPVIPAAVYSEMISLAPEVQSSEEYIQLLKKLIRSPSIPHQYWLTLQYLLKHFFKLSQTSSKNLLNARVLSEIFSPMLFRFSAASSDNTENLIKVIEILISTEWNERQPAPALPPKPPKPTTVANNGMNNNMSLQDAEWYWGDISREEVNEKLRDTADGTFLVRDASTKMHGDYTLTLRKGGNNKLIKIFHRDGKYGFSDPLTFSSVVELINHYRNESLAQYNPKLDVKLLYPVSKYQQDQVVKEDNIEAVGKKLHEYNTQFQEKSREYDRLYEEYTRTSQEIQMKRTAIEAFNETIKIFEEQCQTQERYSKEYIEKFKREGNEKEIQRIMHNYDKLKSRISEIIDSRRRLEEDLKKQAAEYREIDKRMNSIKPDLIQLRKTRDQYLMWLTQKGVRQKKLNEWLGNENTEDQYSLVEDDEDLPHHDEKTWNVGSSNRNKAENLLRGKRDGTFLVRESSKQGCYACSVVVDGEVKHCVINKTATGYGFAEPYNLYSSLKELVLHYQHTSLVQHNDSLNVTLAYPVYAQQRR
structure (smiles),measurement,setting,value
c1cnc2ccc(Nc3nc(NC4CC4)c4nc[nH]c4n3)cc2c1 [Compound A],EC50,PDGFR,~1000 nM
same,Cell Death Rate/% 1,"H526; 48 hours, Table 10",10.5%
same,Cell Death Rate/% 2,"H526; 48 hours, Table 10",9.87%
same,Cell Death Rate/% 3,"H526; 48 hours, Table 10",10.95%
same,Cell Death Rate/% mean,"H526; 48 hours, Table 10",10.44%
same,Cell Death Rate/% 1,"H526; Example 10, Table 11",8.29%
same,Cell Death Rate/% 2,"H526; Example 10, Table 11",8.39%
same,Cell Death Rate/% 3,"H526; Example 10, Table 11",8.64%
same,Cell Death Rate/% mean,"H526; Example 10, Table 11",8.44%
same,RTV at D18,[1]; 15 mg/kg P.O.,18.67 ± 12.89
same,Tumor volume D0,[1]; 15 mg/kg P.O.,118 ± 21 mm^3
same,Tumor volume D18,[1]; 15 mg/kg P.O.,2135 ± 1279 mm^3
same,T/C,[1]; 15 mg/kg P.O.,70.8%
same,RTV at D18,[1]; 30 mg/kg P.O.,12.58 ± 4.38
same,Tumor volume D0,[1]; 30 mg/kg P.O.,113 ± 19 mm^3
same,Tumor volume D18,[1]; 30 mg/kg P.O.,1449 ± 608 mm^3
same,T/C,[1]; 30 mg/kg P.O.,47.7* %
same,RTV at D18,[1]; 60 mg/kg P.O.,9.15 ± 5.33
same,Tumor volume D0,[1]; 60 mg/kg P.O.,110 ± 11 mm^3
same,Tumor volume D18,[1]; 60 mg/kg P.O.,1039 ± 669 mm^3
same,T/C,[1]; 60 mg/kg P.O.,34.7* %
same,IC50,A549,2300 ± 800 nM
same,IC50,U87,9700 ± 7000 nM
same,IC50,RS 4;11,400 ± 100 nM
same,EC50,KDR (VEGFR-2),~1000 nM
same,IC50,Ls-174t,5900 ± 900 nM
same,Body weight (without tumor) D0,"[2]; 25 mg/kg P.O., D0, 2, 4, 8, 10",23.7 g
same,Body weight (without tumor) D14,"[2]; 25 mg/kg P.O., D0, 2, 4, 8, 10",17.7 g
same,RTV at D14,"[2]; 25 mg/kg P.O., D0, 2, 4, 8, 10",13.91 ± 2.39
same,Tumor volume D0,"[2]; 25 mg/kg P.O., D0, 2, 4, 8, 10",145 ± 19 mm^3
same,Tumor volume D14,"[2]; 25 mg/kg P.O., D0, 2, 4, 8, 10",1997 ± 316 mm^3
same,T/C,"[2]; 25 mg/kg P.O., D0, 2, 4, 8, 10",66%
same,Body weight (without tumor) D0,"[2]; 50 mg/kg P.O., D0, 3, 6, 9",23.4 g
same,Body weight (without tumor) D14,"[2]; 50 mg/kg P.O., D0, 3, 6, 9",16.2 g
same,RTV at D14,"[2]; 50 mg/kg P.O., D0, 3, 6, 9",8.21 ± 3.55
same,Tumor volume D0,"[2]; 50 mg/kg P.O., D0, 3, 6, 9",147 ± 22 mm^3
same,Tumor volume D14,"[2]; 50 mg/kg P.O., D0, 3, 6, 9",1176 ± 450 mm^3
same,T/C,"[2]; 50 mg/kg P.O., D0, 3, 6, 9",38.9* %
same,Body weight (without tumor) D0,"[2]; 50 mg/kg P.O., D0, 4, 8",23.3 g
same,Body weight (without tumor) D14,"[2]; 50 mg/kg P.O., D0, 4, 8",16.9 g
same,RTV at D14,"[2]; 50 mg/kg P.O., D0, 4, 8",10.25 ± 2.39
same,Tumor volume D0,"[2]; 50 mg/kg P.O., D0, 4, 8",149 ± 29 mm^3
same,Tumor volume D14,"[2]; 50 mg/kg P.O., D0, 4, 8",1497 ± 282 mm^3
same,T/C,"[2]; 50 mg/kg P.O., D0, 4, 8",48.6* %
same,IC50,K562,1200 ± 100 nM
same,IC50,BT-474,4400 ± 400 nM
same,IC50,NCI-H460,4000 ± 400 nM
same,IC50,leukemia cell lines,≤ 1600 nM
same,"EC50, PI3K α isoform",PI3K α isoform,at the μM level
